Where two headings read alike, the source gives them in different places.
Assays:
[1] = tested on: human malignant lymphoma cells (U937); experiment: Tumorigenic assay in athymic nude mice; type: in vivo; settings: U937 cells treated with dThd 0.2 mM for 4 hr followed by STSP 25 nM for 7 hr before subcutaneous inoculation; 14 days
Text: The biologic behavior of xenografts of human malignant cells in immunosuppressed mice can approximate natural growth conditions in a patient, since the cells receive a local supply of plasma nutrients and can survive for several weeks. Thus, inoculated cells may survive in a latent state prior to growth, a condition not readily duplicated in vitro. Inoculum size is critical for observation of tumor growth within a practical time frame. […] After treatment, cells were sedimented and resuspended in serum-free RPMI 1640. In each group four athymic Nu/Nu weanling mice of mean weight 17 gm were inoculated subcutaneously into both subscapular regions with 0.1 ml of RPMI 1640 containing 10^7 cells (viability>90%). Formation of tumors in these subcutaneous sites was observed during the next 14 days. One control mouse died prematurely. At 14 days, all animals were sacrificed, tumors were photographed, tumors were carefully dissected, and tumor weights were recorded. Tumors were verified histologically.

[2] = tested on: U937 cells; experiment: Pilot test of enhancement of gamma radiation damage; type: cell-based, human; settings: STSP as RA, approximately 25 nM, pilot data
Description: Serial two-fold changes in calibrated radioactive dosages are combined with two-fold serial dilutions of an agent being tested as an RA or a TCI.

[3] = tested on: U937 cells; experiment: MIS LDH release assay (CytoTox96); type: cell-based, human; settings: STSP for 14 H, total 18 H, STSP nM: 100,50,25,13,6,3, r16 dThd alone
Description: The MIS set up was identical to that described in Example 8. The relative activity of LDH released into supernatant from each microculture well was detected by a coupled enzymatic assay, Decker et al., J. Immunol. Methods 15:61 (1988), in which the chromogen 2-(p-iodophenyl)-3-(p-nitrophenyl)-5-phenyl tetrazolium chloride (INT) is converted to a red INT-formazan product by NADH in the presence of diaphorase.
In this procedure, after incubation and at the time for assay, 50 μl of fresh medium was added to each microculture well prior to assay and microcultures in the entire 96 well plate were simultaneously sedimented at 400×G for 10 min in a Becton Dickinson refrigerated table top centrifuge using a plate carrier. A 50 μl sample from each microwell then was removed carefully and transferred to a corresponding well in a clean 96 well plate. LDH activity was quantitated by means of the CytoTox96 assay, Promega Corp., Madison, Wis. 53711, according to the manufacturers instructions. In tests to determine the total LDH in each microwell, 10 μl of lysing reagent (from the CytoTox96 assay kit) was added to the fixed 100 μl volume with cells and medium prior to the above step. […].
These formulas use […] in which positive numbers are obtained as compared to % inhibition used above. […] Particularly for the latter purpose, all of the cells in each microculture well were totally lysed with Promega lysing reagent prior to the calorimetric measurement.

[4] = tested on: pRb; experiment: Immunoblot of pRb phosphorylation status; type: cell-based, human
Description: Whole cell extracts (U937 cells) were prepared in an SDS 2×sample buffer (100 mM Tris.HCl (pH 6.8), 200 mM DTT and 4% sodium dodecyl sulfate) and boiled for 5 minutes. Protein concentrations were assayed, and samples of 100 μg of protein per lane were applied to 7.5% SDS-polyacrylamide gels (PAGE). Resolved proteins were transferred to Immobilon P (Millipore), and pRb was localized with monoclonal anti-pRb (Santa Cruz, IF8) and a chemiluminescence procedure (Amersham ECL). Samples for flow cytometry were prepared and flow cytometry was performed as described in Example 2.

[5] = tested on: p34^cdc2, c-myc, JNK, Erk-2; experiment: Immunoblot and kinase activity assays (CDC2, c-myc, MAP kinases); type: cell-based, human; settings: U937, STSP ±dThd or dThd alone
Description: The cyclin-dependent kinase p34^cdc2 was detected with antibody clone #1 from Signal Transduction Laboratories. For detection of histone phosphorylation activity p34^cdc2 was immunoprecipitated with monoclonal antibody (Santa Cruz, #17) using protein A sepharose and reacted with H1 substrate (Boehringer Mannheim) in the presence of γ^32P-ATP Aersham). […] MAP kinases were detected by immnunoblotting with monoclonal antibodies from Pharmingen (San Diego, Calif.). For assay of enzymatic activities, MAP kinases were immunoprecipitated as above with polyclonal antibody to erk2 or with a GST-JNK substrate for JNK. The substrate for erk2 was myelin basic protein substrate and for JNK was GST-JNK (Pharmingen). The protooncogene product c-myc was detected by immunoblotting with an antibody from Oncogene Sciences.

[6] = tested on: Burkitt's lymphoma cell line Raji; experiment: MIS MTT growth inhibition assay; type: cell-based, human; settings: Raji cells (Tk deficient)
[7] = tested on: HL-60 cells; experiment: MIS MTT growth inhibition assay; type: cell-based, human
Text: (§1) A dye, 3-[4,5-dimethylthiazol-2-yl]-2,5-diphenyl-tetrazolium bromide (MTT), was used as a chromogenic indicator of the metabolically active cell mass. Viable cells metabolize the dye and accumulate a reduced formazan product (blue color) which is solubilized for colorimetry. Mossman T, J. Immunol. Methods 5:55-63 (1983); Li L and Lau B H S, In Vitro Cell Dev. Biol. 29A:531-536 (1993). The MTT assay has been established as useful for measuring either growth inhibition or population killing. Plowman, supra. The MTT method is ideal for cells tested in suspension growth, and can also be used for some cells growing in monolayers. […] Alley, supra; Hofs, supra; Wilson J K et al., Br. J. Cancer 62:189-94 (1990); Plowman, supra.
(§2) Thirty μl of 0.5% MTT in phosphate buffered saline was added to each microculture well at the appropriate time. After incubation at 37° C. for 3 hr, 120 μl of an aqueous solution of 10 % SDS with 0.01 N HCl was added to release and dissolve formazan product. This was accomplished by overnight incubation of the plate at 37° C. After careful mixing of the microwell contents by placing the plates on an orbital shaker for 5 minutes the absorbencies were quantitated by spectrophotometry at 570 nm with a Ceres UV 900 HDI microwell plate reader (from Biotek Instruments Inc, Winooski, Vt. 05404-0998). Absorbance data was normalized to a blank well containing all reagents without cells and was collected semi-automatically.
(§3) Flat-bottom 96-well plates of tissue culture quality (Corning or Costar) were set up with two-fold serial dilutions of each agent to be tested, e.g., the RA and TCI, using a multichannel pipettor with adjustable volume, e.g., Costar or Rainin, to perform serial mixing. This set-up is diagrammed in FIG. 12. […] In each plate, a total of 59 wells then contained bivariate agent combinations, the bivariate serial dilutions.

[8] = tested on: Daudi cells; experiment: MIS MTT growth inhibition assay; type: cell-based, human
Text: as §1, §2, §3

[9] = Homo sapiens, HL-60, 2 h, dThd […] 2 H, STSP 0, read-out: MTT % inhibition, dThd only
[10] = Homo sapiens, 4 h, read-out: MTT % inhibition, Aph only

**Q.** For CN[C@@H]1C[C@H]2O[C@@](C)([C@@H]1OC)n1c3ccccc3c3c4c(c5c6ccccc6n2c5c31)C(=O)NC4 [STSP, staurosporine], which Tumor formation [1] is on record?
**A.** developed no tumors

**Q.** And the “Effect on gamma radiation damage” value [2]?
**A.** an enhancing effect upon damage produced by a single exposure of the U937 cells to 2.5 to 10 Gy of gamma radiation

**Q.** Which “LDH release multiple, dThd 0.02 mM” value ([3]; dThd 0.02 mM for 4 H) does the source give for Cc1cn([C@H]2C[C@H](O)[C@@H](CO)O2)c(=O)[nH]c1=O [dThd, deoxythymidine] here?
**A.** 1.20

**Q.** What about the “LDH release multiple, dThd 0.06 mM” value ([3]; dThd 0.06 mM for 4 H) of the same molecule?
**A.** 1.14

**Q.** And the “LDH release multiple, dThd 0.09 mM” value ([3]; dThd 0.09 mM for 4 H)?
**A.** 1.19

**Q.** What about the “LDH release multiple, dThd 3.0 mM” value ([3]; dThd 3.0 mM for 4 H) of the same molecule?
**A.** 3.61

**Q.** And the pRb phosphorylation ([4]; 0.2 mM dThd)?
**A.** did not appear to be grossly inhibited

**Q.** What about the pRb phosphorylation ([4]; 3 mM dThd, 4 or 11 hours) of the same molecule?
**A.** pRb phosphorylation was inhibited

**Q.** What about the “Phosphorylation of CDC2” value [5] of the same molecule?
**A.** not by dThd alone

**Q.** What about the “IC40, growth inhibition” value [6] of the same molecule?
**A.** > 4 mM

**Q.** What about the inhibition at 10 µM ([7]; Homo sapiens, HL-60, 2 h, dThd 0.01 mM 2 H, STSP 0, read-out: MTT % inhibition, dThd only) of the same molecule?
**A.** 2%

**Q.** What about the inhibition at 10 µM ([7]; Homo sapiens, HL-60, 2 h, dThd 0.01 mM (column 8, lowest) 2 H, STSP 0, read-out: MTT % inhibition, dThd only) of the same molecule?
**A.** 5%

**Q.** And the inhibition at 20 µM ([7]; Homo sapiens, HL-60, 2 h, dThd 0.02 mM 2 H, STSP 0, read-out: MTT % inhibition, dThd only)?
**A.** 7%

**Q.** What about the inhibition at 50 µM ([7]; Homo sapiens, HL-60, 2 h, dThd 0.05 mM 2 H, STSP 0, read-out: MTT % inhibition, dThd only) of the same molecule?
**A.** 10%

**Q.** And the inhibition at 90 µM ([7]; Homo sapiens, HL-60, 2 h, dThd 0.09 mM 2 H, STSP 0, read-out: MTT % inhibition, dThd only)?
**A.** 13%

**Q.** What about the inhibition at 3000 µM ([7]; Homo sapiens, HL-60, 2 h, dThd 3.00 mM 2 H, STSP 0, read-out: MTT % inhibition, dThd only) of the same molecule?
**A.** 59%

**Q.** And the inhibition at 190 µM [7, 9]?
**A.** 20%

**Q.** And the inhibition at 380 µM [7, 9]?
**A.** 28%

**Q.** What about the inhibition at 750 µM [7, 9] of the same molecule?
**A.** 40%

**Q.** And the inhibition at 1500 µM [7, 9]?
**A.** 49%

**Q.** What about the “combined results ratio, dThd only (baseline line)” value ([7]; dThd alone, dThd 3.00-0.09 mM) of the same molecule?
**A.** 1.0

**Q.** How did the “combined results ratio, Aph only (baseline line)” value ([8]; Aph alone, every Aph concentration 8.00-0.02 ug/ml) turn out when C[C@@]1(CO)[C@H](O)CC[C@@]2(C)[C@H]1CC[C@H]1C[C@@H]3C[C@@]12CC[C@]3(O)CO [Aph, aphidicolin] was run?
**A.** 1.0

**Q.** And the inhibition at 0.02 µg/mL [8, 10]?
**A.** 0%

**Q.** And the inhibition at 0.03 µg/mL [8, 10]?
**A.** 1%

**Q.** What about the inhibition at 0.06 µg/mL [8, 10] of the same molecule?
**A.** 4%

**Q.** What about the inhibition at 0.5 µg/mL [8, 10] of the same molecule?
**A.** 8%

**Q.** And the inhibition at 1 µg/mL [8, 10]?
**A.** 8%

**Q.** What about the inhibition at 2 µg/mL [8, 10] of the same molecule?
**A.** 9%

**Q.** What about the inhibition at 4 µg/mL [8, 10] of the same molecule?
**A.** 16%

**Q.** What about the inhibition at 8 µg/mL [8, 10] of the same molecule?
**A.** 28%

From patent publication US6455593B1, “Method of dynamic retardation of cell cycle kinetics to potentiate cell damage” (priority 1995, dated 2002)
